Data: US10842776B2, “Hycanthone derivatives and Primaquine derivatives for use in the prevention and/or the treatment of disorders associated to gammaherpesvirus” (priority 2016, dated 2020)
Structures can show the parent of a compound that is named as a salt.

Assays:
[1] = test system: caspase 3/7 activity in BC-3 cells; assay: Induction of caspase 3/7 activity (apoptosis); assay type: cell-based, human; details: 10 μM, 24 h
Procedure: Apoptosis induction was evaluated 24 h after the treatment started by measuring caspase 3/7 activity in treated- or untreated control BC-3 cells. […] DDTC is used as a positive inducer of caspase 3/7 activity in BC-3 cell lines (Matsuno et al., 2012, Int J Oncol 40: 1071-1078).
BC-3 cells (10000 cells/well) were incubated 24 h with a concentration of 10 μM of Primaquine diphosphate (Sigma), Hycanthone (Sigma), or Diethyldithiocarbamate (DDTC) (Sigma), and then lysed and a 3/7 Reagent (DEVD) is added. Lysed cells release caspase-3 or -7, which cleave the DEVD substrate from the aminoluciferin. Finally, the oxidation of the luciferin by luciferase produces light, which is measured by a luminometer. The amount of light produced is proportional to the amount of caspase-3 or -7 activity. […] (DDTC) (Sigma) known to induce apoptosis in BC-3 cells via the inhibition of NF-κB is used as positive control.

[2] = test system: BC-3 cells; assay: Cell growth inhibition; assay type: cell-based, human; details: 10 μM, D0 to D3, versus BC3 cells cultured in standard conditions
Procedure: Cell growth was measured every day from the day of treatment (DO) until 3 days after the treatment started (D3).
BC-3 cells were grown in RPMI-1640 GlutaMAX (Gibco) supplemented with 10% fetal bovine serum and antibiotics (amikacine and vancomycine) during 3 days. The number of cells per milliliter is measured at baseline, DO, D2 and D3. BC-3 were cultured with and without primaquine and Hycanthone.

[3] = test system: phosphorylation of IκB (NF-κB pathway) in BC-3 PEL cell line; assay: IκB phosphorylation, western blot; assay type: cell-based, human; details: 10 μM, pre-treated for 6 and 12 h, BC-3 cells
Procedure: BC-3 cells were pre-treated for 6 h (A) and 12 h (B) with primaquine and hycanthone at 10 μM. DDTC was used as positive control. Whole-cell lysates were prepared as described in Materials and Methods of example F and used for p-IκB western blot analysis by using the appropriate antibodies. […] Treatment of BC-3 cells with DDTC (diethyldithiocarbamate) was carried out in the same conditions and served as a positive control.
BC-3, an HHV-8 positive lymphoblastic cell line (ATCC CRL-2277) and RAMOS, an human Burkitt's lymphoma cell line (ATCC CRL-1596), were routinely maintained in RPMI 1640 medium supplemented with 10% fetal heat-inactivated bovine serum (FBS), and antibiotics (Sigma Chemical Co., St. Louis, Mo.) in a 5% CO2 incubator at 37° C. To prepare whole cell extracts, the cells were washed with cold phosphate-buffered saline twice and lysed in lysis RIPA buffer containing 10 mM Tris-HCl, pH 8.0, 140 mM NaCl, 1% Triton X-100, 1 mM EDTA, 0.5 mM EGTA, 0.1% sodium deoxycholate, 0.1% SDS, supplemented with protease inhibitor mixture (1 mM PMSF, 10 mM β-glycerophosphate, 10 mM NaF, 1 mM sodium orthovanadate, 1 mM sodium pyrophosphate), (ThermoFisher Scientific) at 4° C. for 30 min. […] The supernatants were collected as whole cell extracts, and protein concentration was determined by the Lowry method. […]

[4] = test system: MRC-5, primary cutaneous fibroblasts, primary keratinocytes, Hela P4; details: human, 48 h, 10 μM
Procedure: (§1) HHV8 infected cell line (BC3), HHV8-non infected cell lines (MRC5, HeLa P4), and HHV8 non infected primary cells (human keratinocytes, human cutaneous fibroblasts, B-type lymphocytes CD19+) were grown in vitro and treated by either Primaquine diphosphate, Hycanthone, Paclitaxel or Doxorubicin hydrochloride at a concentration of 10 μM. Cell viability was evaluated by ATP quantitation 48 h after the treatment started.
(§2) The effect of Primaquine diphosphate (Sigma), Hycanthone (Sigma), Paclitaxel (Sigma), and Doxorubicin (Sigma) were evaluated on relevant primary cells and cell lines that are or not infected by HHV-8.
• BC-3: cell line established from pleural effusion from a human immunodeficiency virus (HIV) negative patient diagnosed with primary effusion lymphoma (PEL). BC-3 cell line is HHV8 infected but not infected for Epstein-Barr virus (EBV) as well as for herpes simplex virus 1 &2 (HSV-1 & HSV-2) and cytomegalovirus (CMV) (ATCC), • MRC5: Cell line derived from normal lung tissue of a […] fetus (ATCC), • Primary cutaneous fibroblasts (Lonza ref CC 25 11), • Primary keratinocytes (Lonza ref 00 192 627), • HeLa: immortal cell line established from an adult human cervical cancer HVP-18 infected (NIH Reagent program), • Primary B-type lymphocytes CD19+: primary B cells positively selected using CD19 microbeads (Miltenyi).
(§3) Cells were treated in vitro with either Primaquine diphosphate (Sigma), Hycanthone (Sigma), Paclitaxel (Sigma), or Doxorubicin hydrochloride (Sigma) at a concentration of 10 μM. The viability of the cells was evaluated 48 h after the treatment started as previously described with the Kit CellTiter Glo (Promega).

[5] = test system: BC-3 cells (HHV8 infected PEL cell line); assay: Cell viability (ATP quantitation, CellTiter Glo) of HHV8-infected cells; assay type: cell-based, human; details: 10 μM, 48 h, HHV8 infected BC-3 cells
Procedure: as §1, §2
• BC-3: cell line established from pleural effusion from a human immunodeficiency virus (HIV) negative patient diagnosed with primary effusion lymphoma (PEL). […]
as §3

[6] = Toxicity of Primaquine in NOD/SCID mice; assay type: in vivo; details: 12.5 mg/kg, after 24 days of treatment
Procedure: (§4) Primaquine efficacy was evaluated using a mice model of immunodeficient NOD/SCID mice. […] Mice weight was measured at various times (D6, D13, D20 and D24) after the treatment started.
(§5) The experiment was conducted on 24 NOD/SCID mice (4 groups of 6 mice) (Charles River laboratories): 1 group (Mock) without xenograft (no BC-3) and non-treated (no Primaquine), 1 group with xenograft (BC-3) and non-treated (no Primaquine), 1 group with xenograft (BC-3) and treated (Primaquine 12.5 mg/kg; (Sigma), 1 group without xenograft and treated (Primaquine 12.5 mg/kg; (Sigma).
At the beginning of the experiments, the mice were 6 weeks old according to previous experiments conducted and available in the literature. Animals had 7 to 10 days of acclimatization before experiment. At baseline, 20.10^6 of BC3 cells in 500 μL of PBS were injected by i.p. in order to induce the development of PEL. Tumor growth is correlated with the total gain of weight. The consequent gain of weight should not exceed 150% of the baseline weight. For the group of mice […] by Primaquine, each mice received 1 i.p injection of 500 μL of PBS instead of BC-3 cells in order to evaluate the toxicity of Primaquine in mice.

[7] = test system: BC-3 xenograft (PEL); assay: Primary Effusion Lymphoma xenograft model in immunodeficient NOD/SCID mice; assay type: in vivo
Procedure: as §4
Note the large growth tumor in the abdomen of the mouse that received BC-3 xenograft (“BC-3”) but not treated by primaquine.
At baseline, mice are inoculated with a PEL cell line (BC-3) by intraperitoneal (i.p) injection. One day after injection of BC-3 cells, Primaquine is administered by intraperitoneal injection, and then 3 times a week during 8 weeks. Tumoral burden is evaluated by the measure of weight every weeks (References: T. Matsuno, 2012: Diethyldithiocarbamate induces apoptosis in HHV-8-infected primary effusion lymphoma cells via inhibition of the NF-κB pathway; K. A. Sarosiek, 2010: Efficacy of bortezomib in a direct xenograft model of primary effusion lymphoma; W. Wu, 2005: Inhibition of HHV-8/KSHV infected primary effusion lymphomas in NOD/SCID mice by azidothymidine and interferon).
as §5, with “(Sigma). […]” for “(Sigma).”

Structure (SMILES) | apoptosis (caspases 3/7 activation) versus non-treated control [1] | cellular growth of BC3 [2] | phosphorylation of IκB [3] | toxicity (cell death) in other cell types non infected by HHV8 [4] | cell death in BC-3 cells [5] | toxicity in mice [6] | reduction of the median gain of weight ([7]; 12.5 mg/kg i.p. 3 times a week, D24, versus untreated mice with BC-3 xenograft) | growth tumor in the abdomen ([7]; 12.5 mg/kg, after 24 days of treatment, picture versus untreated BC-3 mouse)
CCN(CC)C(=S)S [DDTC, Diethyldithiocarbamate] | 4 times | – | – | – | – | – | – | –
CCN(CC)CCNc1ccc(CO)c2sc3ccccc3c(=O)c12 [Hycanthone] | at least as equivalent of that induced by DDTC | inhibited cellular growth | dramatically reduced | < 20% | – | – | – | –
CC(=O)O[C@H]1C(=O)[C@@]2(C)[C@H]([C@H](OC(=O)c3ccccc3)[C@]3(O)C[C@H](OC(=O)[C@H](O)[C@@H](NC(=O)c4ccccc4)c4ccccc4)C(C)=C1C3(C)C)[C@]1(OC(C)=O)CO[C@@H]1C[C@@H]2O [Paclitaxel] | – | – | – | > 20% | induced cell death | – | – | –
COc1cc(NC(C)CCCN)c2ncccc2c1 (stereo not drawn) [Primaquine diphosphate, Primaquine] | at least as equivalent of that induced by DDTC | inhibited cellular growth | dramatically reduced | – | – | did not show any toxicity | 39.4% | reduced growth tumor
COc1cccc2c1C(=O)c1c(O)c3c(c(O)c1C2=O)C[C@@](O)(C(=O)CO)C[C@@H]3O[C@H]1C[C@H](N)[C@H](O)[C@H](C)O1 [doxorubicin, Doxorubicin hydrochloride] | – | – | – | > 20% | induced cell death | – | – | –
